Measured values: patent US20260240819A1, “KAT6 INHIBITOR METHODS AND COMBINATIONS FOR CANCER TREATMENT” (Pfizer Inc., priority 2020, published 2026)
“And” between values parts separate entries of the source, which are not always exact repeats. Equal entries are not always repeated.

Experiments:
T47D cells [1] = test: Proliferation colony formation assay (SRB stain); format: cell-based; conditions: Homo sapiens, 288 h, single agent, 12 days, read-out: Concentration giving 50% proliferation inhibition
Procedure: (§1) T47D, ZR-75-1, or MCF7 cells were seeded into 6-well tissue culture plates at 10% seeding confluence (100,000-150,000 cells per well). After allowing 18-24 hours for the cells to attach to the wells, growth media was aspirated and discarded and new growth media containing 0-20 μM of either COMPOUND A or COMPOUND B was added in 2-fold increments of descending concentration from 20 μM to the cells (proliferation assay). In parallel, seeded cultures with the same titration of the KAT6 inhibitors was added to the cells. 500 nM palbociclib was also added for each concentration of the KAT6 inhibitors (palbociclib recovery assay). The cultures were incubated 12-14 days and treated with these inhibitors/inhibitor combinations. Growth media containing the inhibitors was replaced on the cell cultures every 3-4 days (twice per week).
For the KAT6 inhibitor treated T47D cultures (proliferation assay), after 12 days the vehicle (DMSO) treated cultures were >90% confluent and the cell cultures were SRB stained as described in Example 3. The stained 6-well plates were scanned using an Epson Perfection V600 Photo Scanner and Epson Scan version 3.9.2.0 software. To quantitate SRB staining in each 6-well culture, the cultures were destained with 2 mL 10 mM Tris pH 7.5 per well and the absorbance at 565 nm (O.D. 565) of the released stain was measured using a SpectraMax Plus plate reader and SoftMaxPro 5.4.3 software. Inhibition of T47D cell proliferation by both COMPOUND A and COMPOUND B were equivalent with 50% proliferation inhibition observed with 10 μM of the KAT6 inhibitors (FIGS. 8A and 8C).
Cells were plated at low density into 6-well culture dishes and allowed to attach overnight at 37° C., 5% CO2. The next day, in parallel to the proliferation set, palbociclib was added at a final concentration of […] to another set of plates, which served as the set for palbociclib recovery. To both proliferation and palbociclib recovery plates, DMSO or KAT6 inhibitor was added into each well at increasing doses. Medium and KAT6 inhibitor were refreshed twice a week. Cells were cultured for about two weeks of drug treatment until the DMSO-treated wells reached confluency. At the end of treatment, cells were washed once with phosphate-buffered saline and were fixed and stained with SRB for visualization followed by quantification. […] Wells were fixed and stained with SRB for visualization followed by quantification. To quantify the stain, stained cells were dissolved in 2 mL of 10 mM Tris-HCl, pH 7.5 and shaken for 10 min on a shaker. Samples were then diluted with 10 mM Tris-HCl, pH 7.5, transferred to a 96-well microtiter plate in a volume of 100 μL and read on SpetraMax at 565 nm.

ZR-75-1 cells [2] = test: Palbociclib recovery colony formation assay (SRB stain); format: cell-based; conditions: Homo sapiens, read-out: Concentration giving 50% inhibition of recovery; ZR-75-1, with 500 nM palbociclib 14 days, then 22 days recovery
Procedure: as §1
(§2) For the ZR-75-1 and MCF7 experiments, only COMPOUND A was tested. For the single agent treated ZR-75-1 cultures the vehicle treated cultures were >90% confluent after 12 days of treatment. These cultures were SRB stained, scanned, and destained/measured as described above. […] After 22 days of recovery, the ZR-75-1 cultures that had been treated with single agent 500 nM palbociclib were >90% confluent and these palbociclib recovery assay cultures were SRB stained, scanned, and destained/measured as described above.

T47D cells [3] = test: as above; format: cell-based; conditions: Homo sapiens, read-out: KAT6 inhibitor concentration giving 50% inhibition of recovery, with 500 nM palbociclib 14 days, then 14 days recovery
Procedure: as §1
For the T47D cultures arrested with 500 nM palbociclib and treated with increasing concentration of the KAT6 inhibitors (palbociclib recovery assay), after 14 days of combination treatment the growth media containing the inhibitors was aspirated from the cultures and discarded. […] After allowing 14 days for the cultures to recover, those that recovered from single agent 500 nM palbociclib arrest were >90% confluent and all the palbociclib recovery cultures were SRB stained, scanned, and destained/measured as described above. […]

ZR-75-1 cells [4] = test: Proliferation colony formation assay (SRB stain); format: cell-based; conditions: Homo sapiens, 288 h, read-out: Concentration giving 50% inhibition of proliferation; ZR-75-1, single agent, 12 days
Procedure: as §1, §2
Cells were plated at low density into 6-well culture dishes and allowed to attach overnight at 37° C., 5% CO2. […] At the end of treatment, cells were washed once with phosphate-buffered saline and were fixed and stained with SRB for visualization followed by quantification. […] Wells were fixed and stained with SRB for visualization followed by quantification. To quantify the stain, stained cells were dissolved in 2 mL of 10 mM Tris-HCl, pH 7.5 and shaken for 10 min on a shaker. Samples were then diluted with 10 mM Tris-HCl, pH 7.5, transferred to a 96-well microtiter plate in a volume of 100 μL and read on SpetraMax at 565 nm.

[5] = tested on: ESR1 (encoding estrogen receptor alpha (ERα)) expression in T47D cells; test: GeneChip gene expression analysis; format: cell-based; conditions: 10 μM, 6 days
Procedure: T47D cell lines having either the Tet-ON KAT6A_5, KAT6A_6, or shRenilla shRNAs were treated with 0.2 μg/mL doxycycline to induce expression of the respective shRNA in the T47D cells and initiate knockdown of KAT6A (KAT6A_5 and KAT6A_6 cells only). The cells were treated with doxycycline for 4 days, which provided suffient time for KAT6A protein depletion in the cells. On day 3 of doxycycline treatment, the KAT6A_5, KAT6A_6, and shRenilla T47D cells were suspended and seeded into 6-well tissue cultures plates at 10% confluence. Parental T47D cells (no shRNA) were also seeded into 6-well tissue culture plates at 10% confluence. On day 4 after shRNA induction, half the T47D KAT6A_5, KAT6A_6, and shRenilla cultures were treated with 0.5 μM palbociclib and half the cultures were kept untreated. All cultures were kept in growth media containing 0.2 μg/mL doxycycline to maintain KAT6A knockdown in the cells throughout the experiment. The parental T47D cells were split into four groups as follows: (1) vehicle treated (DMSO), (2) vehicle+0.5 μM palbociclib, (3) 10 μM COMPOUND A treated, and (4) 10 μM COMPOUND A+0.5 μM palbociclib. The parental T47D and T47D-shRNA cell lines were subsequently treated for 6 days and the growth media, containing the inhibitors represented the different growth conditions described above, was replaced once on day 3 of treatment. […]

MCF7 cells [6] = test: Palbociclib recovery colony formation assay (SRB stain); format: cell-based; conditions: Homo sapiens, read-out: Concentration giving 50% inhibition of recovery; MCF7, with 500 nM palbociclib 14 days, then 10 days recovery
Procedure: as §1
(§3) The MCF7 cells were tested with COMPOUND A. For the single agent treated MCF7 cultures, the vehicle treated cultures were >90% confluent after 10 days of treatment. These cultures were SRB stained, scanned, and destained/measured as described above. […] After 10 days of recovery, the MCF7 cultures that had been treated with single agent 500 nM palbociclib were >90% confluent and these palbociclib recovery assay cultures were SRB stained, scanned, and destained/measured as described above.

MCF7 cells [7] = test: Proliferation colony formation assay (SRB stain); format: cell-based; conditions: Homo sapiens, 240 h, read-out: Concentration giving 50% inhibition of proliferation; MCF7, single agent, 10 days
Procedure: as §1, §3

[8] = tested on: ER+ breast cancer PDX model ST340; test: PDX tumor growth inhibition study; format: in vivo, female athymic nude mice; conditions: doses per Table 7; for % TGI Delta: PDX ST340, day 21, compared to Vehicle; for Mean ± SEM (day 21): PDX ST340, tumor volume (mm^3)
Procedure: (§4) Combination studies with palbociclib, fulvestrant and the KAT6 inhibitor, Compound E (KAT6i), were performed in two ER+ breast cancer PDX models: ST340 and ST941. ST340 was wildtype for ESR1. […] Both studies were conducted by XenoSTART (San Antonio, Texas), where 6-12 week-old female athymic nude mice (JAX, stock #007850) were subcutaneously implanted with ~70 mg tumor fragments. Animals were supplemented with exogenous estradiol ad libitum via drinking water throughout the duration of the studies. Tumor measurements and animal weights were captured twice per week, and animals were stratified and enrolled into the study when the mean tumor volume (TV, formula: width^2×length×0.5) reached 150-300 mm^3.
(§5) Each study contained eight treatment groups of n=10 animals per group. The groups were as follows: 1) Vehicle (5% DMSO/40% PEG300/55% 1×PBS), 2) Compound E, 3) palbociclib, 4) fulvestrant, 5) palbociclib+fulvestrant, 6) Compound E +fulvestrant, 7) Compound E+palbociclib, and 8) Compound E+palbociclib+fulvestrant. Animals remained on study and were continued on treatments until the mean tumor volume of each group reached ~1500 mm^3. At that point, the final dose was administered, animals were sacrificed, and terminal samples were collected. Blood microsamples were collected from each group for pharmacokinetics (PK) analysis at 0, 3, and 7 hrs (n=3/timepoint) on day 14 of dosing and again on the terminal day of dosing.
(§6) Analysis of covariance (ANCOVA) was used to determine statistical significance when comparing percent TGI between groups. Changes in bodyweights were calculated in relation to starting bodyweights at study initiation (day 0 of treatment).

[9] = Bodyweight and health monitoring, PDX ST340 study; format: in vivo, female athymic nude mice; conditions: relative to day 0
Procedure: as §4, §5, §6

[10] = Bodyweight and health monitoring, PDX ST941 study; format: in vivo, female athymic nude mice; conditions: relative to day 0
Procedure: as §4, §5, §6

Compound | IC50 (T47D cells [1]) [µM] | IC50 (ZR-75-1 cells [2]) [µM] | IC50 (T47D cells [3]) [µM] | IC50 (ZR-75-1 cells [4]) [µM] | ESR1 expression and downstream ERα regulated genes [5] | IC50 (MCF7 cells [6]) [µM] | IC50 (MCF7 cells [7]) [µM] | % TGI Delta [8] | Mean ± SEM (day 21) [8] | Day 21 mean change in bodyweight [9] | Maximum mean bodyweight loss [9] [%] | Day 17 mean change in bodyweight [10] | Maximum mean bodyweight loss [10] [%] | % TGI Delta ([8]; listed as fulvestrant)
Cc1cc(-c2ccccc2)cc(C(=O)NNS(=O)(=O)c2ccccc2)c1F [COMPOUND A, N′-(4-fluoro-5-methyl-[1,1′-biphenyl]-3-carbonyl)benzenesulfonohydrazide] | 10 | 2.5 | 5 | 0.3 | significant downregulation | 5 | > 20 | – | – | – | – | – | – | –
O=C(NNS(=O)(=O)c1ccccc1)c1cc(-c2ccccc2)cc(Cl)c1F [COMPOUND B, N′-(5-chloro-4-fluoro-[1,1′-biphenyl]-3-carbonyl)benzenesulfonohydrazide] | 10 | – | 2.5 | – | – | – | – | – | – | – | – | – | – | –
COc1ccccc1S(=O)(=O)Nc1noc2cc(Cn3cccn3)cc(OC)c12 [Compound E, 2-methoxy-N-{4-methoxy-6-[(1H-pyrazol-1-yl)methyl]-1,2-benzoxazol-3-yl}benzene-1-sulfonamide] | – | – | – | – | – | – | – | 55% and 55.4% | 882 ± 86 | −2% | −4 | +5% | −4 | –
C[C@]12CC[C@@H]3c4ccc(O)cc4C[C@@H](CCCCCCCCC[S+]([O-])CCCC(F)(F)C(F)(F)F)[C@H]3[C@@H]1CC[C@@H]2O (stereo partly shown) [Fulvestrant] | – | – | – | – | – | – | – | 21.3% | 1370 ± 195 | +5% | −2 | 0% | −5 | ~ 20%
